The results in this text go back to US20070156042A1, “Medical device system and method for tracking and visualizing a medical device system under MR guidance” (priority 2005, published 2007).

This data set in a line: Diffusion of a fluorescent probe in swollen gelatin gel by FRAP. The format is physicochemical. Conditions: coating thickness 60 μm, diffusion coefficient 9×10−12 m2s−1. An excerpt: To assess the stability of DTPA[Gd(III)] in the gelatin coating, the diffusion of a fluorescence probe in gelatin was studied by the technique of fluorescence recovery after photobleaching (FRAP). The instrument and data analysis scheme are described in Kim, S. H. and Yu, H., J. Phys. Chem. 1992, 96, 4034, which is hereby fully incorporated by reference. Fluorescein was used as the fluorescence probe due, in part, to its molecular size being roughly the same as that of DTPA[Gd(III)]. The focus of the study was to examine the possible retardation effects of gelatin concentration and cross-link density on the diffusion, which was determined at room temperature, i.e., below the gel point of gelatin. The diffusion of fluorescein probe slows down with the increase of gelatin concentration. The diffusion coefficient decreases from 1.5×10−10 to 9×10−12 m2s−1 when the concentration of gelatin increases from 9% to 40%. […] Accordingly, the probe diffusion is more likely controlled by the concentration of gelatin rather than the cross-link density. On the other hand, the cross-link density may determine the swelling ratio of gelatin, i.e., the concentration of gelatin in aqueous solution. […]

As for `O=C(O)CN(CCN(CC(=O)O)CC(=O)O)CCN(CC(=O)O)CC(=O)O` [DTPA, diethylenetriaminepentaacetic acid], the “time to diffuse out of the gelatin coating” value is “about 67 seconds”.
